Measurements from patent US10874727B2, “Inducible regulatory t-cell generation for hematopoietic transplants” (The Trustees of the University of Pennsylvania, priority 2008, dated 2020).
Entries after “also recorded” stand apart in the source; their conditions may differ.

What was measured:
CD4+25−45RA+ T cells [1] = assay: iTreg generation: FoxP3 flow phenotype of cultured CD4+25−45RA+ T cells at day 10; format: cell-based, human; details: for iTreg generation / induction of CD4+127loFoxP3hi cells by day 10: single agents: rapa, TGFb 10 ng/ml, SAHA 300 nM, TSA 100 nM
Description: (§1) For initial studies, to ensure inducible Treg (iTreg) conversion was being examined and not natural Treg (nTreg) expansion, CD4^+25^−45 RA^+ T cells are isolated from ficolled buffy coat cells by negative selection (CD8, CD11b, CD16, CD19, CD36, CD56 CD25) followed by CD45RA positive selection using beads. Cells are cultured in X-Vivo-15 or trypt-free media, as indicated, along with human ABneg serum (10%) and L-glutamine. rIL-2 (300 U/ml: Chiron) is added on day 2 and with re-feeds.
In order to assay for the presence of non-Tregs and nTregs, multi-color phenotyping can be employed pre- and post-isolation and on days 7, 10, 14, 21 for both non-Tregs and nTregs (CD4/25/127lo/FoxP3) for co-expression of adhesion molecules (e.g., CD62L; LFA-1), chemokine receptors (e.g., CCR4-9; CXCR3), and cytokines (IL2, IL17, TNFa, IL10). Phosphorylated-Stat5 and p-Akt can be analyzed at 15′ post-stimulation with PMA/ionomycin.
(§2) To simulate IDO effects, cells were cultured in low tryp+KYN using KYN at 10 μM+trypt at 1 μM until day 7 then 5 μM trypt beyond day 7 to support expansion after iTreg “imprinting” has occurred. Decitibine was added at 1-5 μM (final) to day 3 cultures. Cultures were expanded with anti-CD3/28 mAb-loaded, irradiated KT32 (FcR+) cells. Anti-CD3/28 beads (3 beads:1 cell) or 100 Gy irradiated, anti-CD3 (OKT3) loaded KT64/86 cells (1 KT cell:2 CD4^+25^− T cells) are added on day 0. Cell density is maintained at 0.2-2×10^6/ml by 50% vol/vol re-feeds. By 10 days, diluent cultured cells expanded about 30-fold, decibine about 11 fold and low tryp/KYN about 5-fold; CD4+CD127loFoxP3hi cells were 1%, 16%, and 13%, respectively (FIG. 4; upper, FoxP3hi; lower box, FoxP3int,lo). […] In studies using umbilical cord blood (UCB) nTregs, day 11 cultures re-stimulated with KT cells expanded an additional 20-fold compared to no re-stimulation.
(§3) The next set of experiments were designed to compare the effects of a HDACi in a bead- or cell-based artificial antigen-presenting cell system (KT32) for generating iTregs (FIGS. 5B and 5C). Purified human naïve T cells (CD4^+, CD25^−, CD45RA^+) were stimulated with KT32 (K562 engineered to express human CD32) loaded with anti-CD3 and CD28 antibodies. The cells were cultured for 3 days and SAHA added a single time at the indicated concentrations, and analyzed 7 days later (day 10) for Foxp3 expression (FIG. 5B). Purified human naïve T cells (CD4^+, CD25^−, CD45RA^+) were stimulated with KT32 (K562 engineered to express human CD32) loaded with anti-CD3 and CD28 antibodies. The cells were cultured for 3 days and Trichostatin A added a single time at the indicated concentrations, and analyzed 7 days later (day 10) for Foxp3 expression.
The next set of experiments were designed to compare the effects of the combination of an HDACi with a demethylating agent in a bead- and cell-based antigen-presenting cell system (FIG. 5F). Purified human naïve T cells (CD4^+, CD25^−, CD45RA^+) were stimulated with clinical grade anti-CD3/28 beads or with KT32 (K562 engineered to express human CD32) loaded with anti-CD3 and CD28 antibodies. On day 3 of culture, the specified HDACi were added. On day 7, a single dose of Decitibine (1 μM) was added and cultures analyzed 3 days later (day 10) for Foxp3 expression.

CD4+25−45RA+ T cells [2] = assay: Expansion of CD4+25−45RA+ T cells in bead- or cell-based artificial APC cultures; design: species or system human
Description: as §1, §2
as §3, with “Purified human naïve T cells (CD4^+, CD25^−, CD45RA^+) were stimulated with KT32 (K562 engineered to express human CD32) loaded with anti-CD3 and CD28 antibodies.” left out
The next set of experiments were designed to compare the effects of a demethylating agent in a bead- or cell-based artificial antigen-presenting cell system (KT32) for generating iTregs (FIGS. 5D and 5E). […] The cells were cultured for 3 days and Decitibine added a single time at the indicated concentrations, and analyzed 7 days later (day 10) for Foxp3 expression (FIG. 5D). […] The cells were cultured for 3 days and 5-Azacytidine added a single time at the indicated concentrations, and analyzed 7 days later (day 10) for Foxp3 expression (FIG. 5E).
The next set of experiments were designed to compare the effects of the combination of an HDACi with a demethylating agent in a bead- and cell-based antigen-presenting cell system (FIG. 5F). […] On day 7, a single dose of Decitibine (1 μM) was added and cultures analyzed 3 days later (day 10) for Foxp3 expression.

CD4+25− T cells = assay: iTreg generation from CD4+25− T cells cultured with allogeneic TLR9 activated pDCs; format: cell-based, human; details: IDO inhibition by 1MT in pDC cultures
Excerpt: (§4) CD4^+25^− T cells, when cultured with allogeneic TLR9 activated allogeneic plasmacytoid dendritic cells (pDCs), but not B-cells, lead to the generation of iTregs, CD4^+25^+FoxP3^+ suppressor cells (FIG. 2). It was also observed that iTregs (closed), but not T cells primed to TLR activated B cells (open squares), were potently suppressive of a naïve MLR culture (x-axis are x 104; MLR used 105 naïve T cells; FIG. 3). […] Since IDO catabolizes tryptophan into kynurenines (KYN), it is believed that iTregs can be generated in B cell cultures using KYN.

CD4+25−45RA+ cells = assay: Foxp3 expression at day 14 after Decitibine ± TGFβ induction and re-stimulation with anti-CD3 loaded KT64/86; format: cell-based, human; details: for Foxp3 expression: Decitibine 5 μM day 7 ± TGFβ 10 ng/ml day 0, re-stimulated day 7
Description: The next set of experiments was designed to determine whether re-stimulation of iTreg increases the percentage of Foxp3++ cells. nTreg (CD4^+25^++) and CD4^+25^−45 RA^+ cells were purified from peripheral blood (PB) using magnetic beads and the cells were stimulated with anti-CD3 loaded KT64/86 cells (K562 cells modified to express an Fc receptor CD64 and CD86). nTreg were cultured in the presence of IL-2 (300 U/ml) and Rapamycin (109 nM) while CD4^+25^− cells were cultured with IL-2 alone, or were induced to become Treg by the addition of Decitibine (5 μM at day 7) and Rapamycin (109 nM at day 7). Portions of the CD4^+25^−45 RA^+ and Decitibine iTreg cultures were also re-stimulated on day 7 with anti-CD3 loaded KT64/86 cells. After a total of 14 days, cells were harvested and the expression of CD4, CD25, and Foxp3 was measured using flow cytometry. FIG. 6 summarizes the results in the context of percentage of CD4+ gated cells expressing low (Foxp3+) or high (Foxp3++) levels of Foxp3.
The next set of experiments was designed to determine whether TGFβ could synergize the effects of Decitibine to induce Foxp3 expression in the cells. Briefly, nTreg (CD4^+25^++) and CD4^+25^−45 RA^+ cells were purified from peripheral blood using magnetic beads and stimulated with anti-CD3 loaded KT64/86 cells. nTreg were cultured in the presence of IL-2 (300 U/ml) and Rapamycin (109 nM) while CD4^+25^− cells were cultured with IL-2 alone, or were induced to become Treg by the addition of Decitibine (5 μM at day 7) in the presence or absence of TGFβ (10 ng/ml, day 0). All samples were re-stimulated on day 7 with anti-CD3 loaded KT64/86 cells. After a total of 14 days, cells were harvested and expression of CD4, CD25, and Foxp3 was measured using flow cytometry.

CD8+ T cell = assay: iTreg suppression of CD8+ T cell proliferation by CFSE dye-dilution; format: cell-based, human; details: 1:16 ratio
Description: as §2
In vitro potency of expanded iTregs vs nTregs may be assayed for suppression in MLR and anti-CD3 mAb driven, CD8+ CFSE T cell proliferation assays.

naïve MLR culture = assay: MLR suppression by iTregs generated in B cell cultures using KYN; format: cell-based, human; details: KYN added to allogeneic B cell cultures (50 μM elsewhere in the source); not blocked by 1MT
Excerpt: as §4
It has been shown that CD4^+25^− T-cells exposed to allogeneic TLR9 activated plasmacytoid dendritic cells (pDCs), but not B-cells, leads to the generation of iTregs (Moseman et al., 2004, J Immunol 173:4433-42), CD4^+25^+FoxP3^+ suppressor cells, a process dependent upon the enzyme indoleamine 2,3-dioxygenase (IDO) that catabolizes tryptophan. […] Because obtaining high numbers of non-malignant B-cells or pDCs from leukemia/lymphoma patients would be difficult, low trypt/KYN conditions in an artificial antigen-presenting cell expansion system was examined. In considering strategies for iTreg generation, experiments were designed to focus on molecular features preferentially associated with nTregs vs naïve or T effector cells. […]

PBMNCs = assay: Suppression by expanded Tregs (ratios of Tregs to PBMNCs); format: cell-based, human; details: TGFβ 10 ng/ml added to the cells
Excerpt: (§5) Adding rapa, which is an mTOR inhibitor, (labeled as +) reduced mean expansion rates by 30-fold with beads resulting in ≤10-fold mean expansion rates by day 14.

CD4+25+ Tregs = assay: Expansion of CD4+25+ Tregs with anti-CD3/28 microbeads or KT64/86 cells plus IL-2, with or without rapa; format: cell-based, human
Excerpt: as §5

## CC(/C=C/C(=O)NO)=C\[C@@H](C)C(=O)c1ccc(N(C)C)cc1 [TSA, trichostatin A]
CD4+25−45RA+ T cells [1]; bead expanded cultures, day 10, diluent 1.7
  CD4+127loFoxP3hi: 1.6%
CD4+25−45RA+ T cells [1]; bead expanded cultures, day 10, diluent 21.8%
  FoxP3int/lo: 15.4%
CD4+25−45RA+ T cells [1]
  iTreg generation / induction of CD4+127loFoxP3hi cells by day 10: No iTreg generation
CD4+25−45RA+ T cells [2]; cell-based cultures, HDACi day 3, decitibine day 7, diluent 20-fold
  Day 10 expansions: 15 fold

## O=C(CCCCCCC(=O)Nc1ccccc1)NO [SAHA, suberoylanilide hydroxamic acid]
CD4+25−45RA+ T cells [1]
  iTreg generation / induction of CD4+127loFoxP3hi cells by day 10: did not result in iTregs; also recorded: No iTreg generation
CD4+25−45RA+ T cells [2]; SAHA 300 nM on day 3
  T cell expansion: did not inhibit T cell expansion
CD4+25−45RA+ T cells [2]; SAHA 100 μM on day 0
  toxicity in T cell culture: toxic

## Cn1cc(C[C@H](N)C(=O)O)c2ccccc21 [1MT, 1-methyl-tryptophan]
CD4+25− T cells
  iTreg conversion: prevented iTreg conversion

## Nc1ncn([C@H]2C[C@H](O)[C@@H](CO)O2)c(=O)n1 [decitibine, 5-aza-2′-deoxycitidine]
CD4+25−45RA+ T cells [1]; by 10 days, KT32 cultures, decitibine 1-5 μM day 3 or low tryp+KYN
  CD4+CD127loFoxP3hi cells: 16%
CD4+25−45RA+ T cells [2]; anti-CD3/28 mAb-loaded KT32 cells, decitibine 1-5 μM day 3, KYN 10 μM + trypt 1 μM until day 7 then 5 μM
  expansion by 10 days: about 11 fold
CD4+25−45RA+ cells; Decitibine 5 μM and Rapamycin 109 nM at day 7, re-stimulation on day 7
  percentage of Foxp3++ cells: significantly increased
CD4+25−45RA+ cells
  Foxp3 expression: some Foxp3 expression
CD8+ T cell
  iTreg suppression of CD8+ T cell proliferation: 41%

## Nc1ccccc1C(=O)CC(N)C(=O)O (stereo not shown) [KYN, kynurenine]
naïve MLR culture
  MLR suppression / suppressive iTregs: potent MLR suppression; also recorded: potently suppressive iTregs

## transforming growth factor-beta [TGFβ]
PBMNCs
  suppression: did not increase suppression
CD4+25−45RA+ cells
  Foxp3 expression: synergizes with Decitibine to induce Foxp3 expression

## CO[C@H]1C[C@@H]2CC[C@@H](C)[C@@](O)(O2)C(=O)C(=O)N2CCCC[C@H]2C(=O)O[C@H]([C@H](C)C[C@@H]2CC[C@@H](O)[C@H](OC)C2)CC(=O)[C@H](C)/C=C(\C)[C@@H](O)[C@@H](OC)C(=O)[C@H](C)C[C@H](C)/C=C/C=C/C=C/1C [rapa, rapamycin]
CD4+25+ Tregs; Rapa added to KT64/86 driven cultures
  reduction of mean expansion: 10 fold
CD4+25+ Tregs; rapa added, anti-CD3/28 beads
  reduction of mean expansion rates: 30 fold
CD4+25+ Tregs; rapa added, anti-CD3/28 beads, day 14
  mean expansion rates by day 14: ≤ 10 fold
